Values of other authors, collected in patent publication US11504326B2, “Lipid emulsion therapy for treating acute cannabinoid intoxication” (priority 2019, dated 2022).
Like-named read-outs stand apart in the source and are kept apart here.

How the values were obtained:
[1] = in vivo
[2] = tested on: psychoactive effects; conditions: for dose that impairs attention, concentration, short-term memory, and executive functioning: adolescents and adults

Which results are given for `CCCCCc1cc(O)c2c(c1)OC(C)(C)[C@@H]1CCC(C)=C[C@@H]21` [THC, tetrahydrocannabinol]?
protein-bound [1]: 95-99%; volume of distribution [1]: 2.5 to 3.5 L/kg; dose that impairs attention, concentration, short-term memory, and executive functioning ([2]; ingested): 5 to 20 mg; dose at which psychotropic effects occur ([2]; ingested, naive users): 5 to 20 mg; dose that impairs attention, concentration, short-term memory, and executive functioning ([2]; inhaled): 2 to 3 mg; dose sufficient to produce drug effects ([2]; inhaled, naïve user): 2 to 3 mg
